Measured values published in patent publication US20220267289A1, “SELECTIVE BCRP/ABCG2 TRANSPORTER INHIBITORS AS AGENTS TO ABOLISH RESISTANCE TO ANTI-CANCER AGENTS” (UNIVERSITE GRENOBLE ALPES, priority 2019, published 2022).
Like-named read-outs stand apart in the source and are kept apart here.

Tests used:
[1] = target: T1, BCRP/ABCG2 (Homo sapiens, UniProt Q9UNQ0); experiment: BCRP-mediated mitoxantrone efflux inhibition, ABCG2-transfected HEK293 cells, flow cytometry; conditions: for inhibition at 30 min, 1 μM / inhibition at 30 min, 10 μM / inhibition at 30 min, 1 µM: human, probe mitoxantrone (MX), 4 μM
T1 sequence (Q9UNQ0 1-655): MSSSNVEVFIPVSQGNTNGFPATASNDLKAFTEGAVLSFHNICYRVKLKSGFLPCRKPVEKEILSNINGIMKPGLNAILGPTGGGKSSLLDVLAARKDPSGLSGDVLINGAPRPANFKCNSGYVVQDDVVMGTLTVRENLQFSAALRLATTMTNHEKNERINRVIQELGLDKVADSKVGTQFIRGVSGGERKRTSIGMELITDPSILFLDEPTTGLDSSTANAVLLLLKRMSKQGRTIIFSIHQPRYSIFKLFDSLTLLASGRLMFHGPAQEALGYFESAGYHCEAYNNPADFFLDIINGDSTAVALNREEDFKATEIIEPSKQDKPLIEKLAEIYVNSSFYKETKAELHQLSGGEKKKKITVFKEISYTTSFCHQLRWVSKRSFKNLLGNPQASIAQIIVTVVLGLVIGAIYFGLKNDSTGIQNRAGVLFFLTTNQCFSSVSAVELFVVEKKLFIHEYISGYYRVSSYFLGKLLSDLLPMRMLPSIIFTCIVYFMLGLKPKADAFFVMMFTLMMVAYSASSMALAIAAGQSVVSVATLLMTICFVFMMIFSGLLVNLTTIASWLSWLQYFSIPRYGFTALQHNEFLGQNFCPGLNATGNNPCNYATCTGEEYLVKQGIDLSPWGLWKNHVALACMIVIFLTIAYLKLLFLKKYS
Description: The cells were seeded in 96-well plates at a density of 5×10^4 cells/well in 200 μL of medium and incubated overnight. Then the growth medium was changed to fresh medium containing the compounds and in the presence of 4 μM MX as a fluorescent probe for BCRP-mediated efflux at a final concentration of 0.5% (v/v) DMSO. After 30 min incubation at 37° C., the medium was removed, and the cells were washed with 100 μL of Dulbecco's phosphate-buffered saline (DPBS) followed by dissociation of the cells for 5 min at 37° C. mediated by 25 μL trypsin. Finally, trypsin was neutralised with 175 μL of DPBS ice-cold with 2% bovine serum albumin (BSA) and the cells were carefully resuspended. As a selectivity assay, the same experiment was performed for P-gp and MRP1-mediated efflux with 0.5 μM R123 or 0.2 μM cAM as respective fluorescent substrates instead of MX.
Intracellular fluorescence was measured with a MacsQUANT VRB Analyzer flow cytometer (Miltenyi Biotec) with at least 5000 events recorded. While MX was excited at 635 nm and the fluorescence emission recorded in a 655-730 nm window, R123 and cAM were excited at 488 nm and recorded in a 525/50 nm filter. The compound inhibition yield was estimated by the following equation:
where G2FA is the fluorescence emission (a.u.) of accumulated fluorophore in cells expressing the efflux pump incubated with a fluorescent substrate and the test compound. G2FBG is the resulting background fluorescence emission (a.u.) in cells transfected with ABCG2 (no substrate or test compound). G2S is the fluorescence emission (a.u.) of accumulated fluorophore in cells expressing the efflux pump incubated with substrate only. HEKFA is the fluorescence emission (a.u.) of accumulated fluorophore in control cells incubated with the substrate and test compound. HEKFBG is the resulting background fluorescence emission (a.u.) in control cells (no substrate or test compound). All values are given as the geometric mean fluorescence emission (a.u.) in a 655-730 nm filter (635 nm excitation) measured over 5000 events. The tests were performed in triplicate.

[2] = target: T2, MRP1 (ABCC1) (Homo sapiens, UniProt P33527); experiment: MRP1-mediated calcein-AM efflux inhibition (selectivity assay), ABCC1-transfected Flp-In 293 cells; assay type: cell-based; conditions: probe calcein-AM (cAM), 0.2 μM cAM; for inhibition at 30 min, 1 μM: [Inhibitor] 1 μM; for inhibition at 30 min, 10 μM: [Inhibitor] 10 μM
T2 construct: expressed in transfected cells; host or cells: Flp-In 293
Description: (§1) The tests were performed in triplicate.

[3] = target: T3, P-gp (ABCB1) (Homo sapiens, UniProt P08183); experiment: P-gp-mediated rhodamine 123 efflux inhibition (selectivity assay), ABCB1-transfected NIH/3T3 cells; assay type: cell-based; conditions: probe rhodamine 123 (R123), 0.5 μM R123; for inhibition at 30 min, 1 μM: [Inhibitor] 1 μM; for inhibition at 30 min, 10 μM: [Inhibitor] 10 μM
T3 construct: expressed in transfected cells; host or cells: NIH/3T3
Description: as §1

[4] = hydrolysis of tertiary butyl ester to inactive metabolite; cited from earlier work

T3 sequence (P08183 whole entry): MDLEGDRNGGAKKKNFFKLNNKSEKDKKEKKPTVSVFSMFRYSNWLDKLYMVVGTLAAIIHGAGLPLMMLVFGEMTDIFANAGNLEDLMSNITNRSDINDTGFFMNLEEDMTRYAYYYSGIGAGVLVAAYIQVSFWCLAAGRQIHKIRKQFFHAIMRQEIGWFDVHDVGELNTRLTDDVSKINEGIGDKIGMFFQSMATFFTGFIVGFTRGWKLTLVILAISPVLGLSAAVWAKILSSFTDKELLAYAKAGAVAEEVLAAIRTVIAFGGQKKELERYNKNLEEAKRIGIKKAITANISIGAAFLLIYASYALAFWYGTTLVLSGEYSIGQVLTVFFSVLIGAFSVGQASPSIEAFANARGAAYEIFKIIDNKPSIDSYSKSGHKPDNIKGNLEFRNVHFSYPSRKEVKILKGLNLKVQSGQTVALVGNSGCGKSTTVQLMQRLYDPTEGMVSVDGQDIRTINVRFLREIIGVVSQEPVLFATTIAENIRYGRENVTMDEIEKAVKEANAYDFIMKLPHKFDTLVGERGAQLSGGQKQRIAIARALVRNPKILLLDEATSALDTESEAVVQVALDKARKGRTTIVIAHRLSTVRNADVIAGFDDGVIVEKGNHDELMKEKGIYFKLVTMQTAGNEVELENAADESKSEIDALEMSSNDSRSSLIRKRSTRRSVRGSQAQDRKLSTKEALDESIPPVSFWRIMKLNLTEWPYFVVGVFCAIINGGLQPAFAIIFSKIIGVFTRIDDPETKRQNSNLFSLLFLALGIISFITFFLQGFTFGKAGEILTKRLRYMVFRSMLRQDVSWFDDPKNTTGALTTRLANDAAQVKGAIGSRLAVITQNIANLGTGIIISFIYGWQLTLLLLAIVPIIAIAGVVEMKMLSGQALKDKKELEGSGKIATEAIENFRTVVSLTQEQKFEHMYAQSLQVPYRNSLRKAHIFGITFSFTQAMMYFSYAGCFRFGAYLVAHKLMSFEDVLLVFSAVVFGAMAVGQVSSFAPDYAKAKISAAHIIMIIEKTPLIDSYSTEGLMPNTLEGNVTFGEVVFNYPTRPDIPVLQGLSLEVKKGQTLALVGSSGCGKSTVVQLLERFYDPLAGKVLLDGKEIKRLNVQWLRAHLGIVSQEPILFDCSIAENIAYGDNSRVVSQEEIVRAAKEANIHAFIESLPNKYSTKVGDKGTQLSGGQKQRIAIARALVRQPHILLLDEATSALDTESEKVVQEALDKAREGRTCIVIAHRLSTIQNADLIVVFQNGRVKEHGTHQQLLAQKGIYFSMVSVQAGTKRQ
T2 sequence (P33527 whole entry): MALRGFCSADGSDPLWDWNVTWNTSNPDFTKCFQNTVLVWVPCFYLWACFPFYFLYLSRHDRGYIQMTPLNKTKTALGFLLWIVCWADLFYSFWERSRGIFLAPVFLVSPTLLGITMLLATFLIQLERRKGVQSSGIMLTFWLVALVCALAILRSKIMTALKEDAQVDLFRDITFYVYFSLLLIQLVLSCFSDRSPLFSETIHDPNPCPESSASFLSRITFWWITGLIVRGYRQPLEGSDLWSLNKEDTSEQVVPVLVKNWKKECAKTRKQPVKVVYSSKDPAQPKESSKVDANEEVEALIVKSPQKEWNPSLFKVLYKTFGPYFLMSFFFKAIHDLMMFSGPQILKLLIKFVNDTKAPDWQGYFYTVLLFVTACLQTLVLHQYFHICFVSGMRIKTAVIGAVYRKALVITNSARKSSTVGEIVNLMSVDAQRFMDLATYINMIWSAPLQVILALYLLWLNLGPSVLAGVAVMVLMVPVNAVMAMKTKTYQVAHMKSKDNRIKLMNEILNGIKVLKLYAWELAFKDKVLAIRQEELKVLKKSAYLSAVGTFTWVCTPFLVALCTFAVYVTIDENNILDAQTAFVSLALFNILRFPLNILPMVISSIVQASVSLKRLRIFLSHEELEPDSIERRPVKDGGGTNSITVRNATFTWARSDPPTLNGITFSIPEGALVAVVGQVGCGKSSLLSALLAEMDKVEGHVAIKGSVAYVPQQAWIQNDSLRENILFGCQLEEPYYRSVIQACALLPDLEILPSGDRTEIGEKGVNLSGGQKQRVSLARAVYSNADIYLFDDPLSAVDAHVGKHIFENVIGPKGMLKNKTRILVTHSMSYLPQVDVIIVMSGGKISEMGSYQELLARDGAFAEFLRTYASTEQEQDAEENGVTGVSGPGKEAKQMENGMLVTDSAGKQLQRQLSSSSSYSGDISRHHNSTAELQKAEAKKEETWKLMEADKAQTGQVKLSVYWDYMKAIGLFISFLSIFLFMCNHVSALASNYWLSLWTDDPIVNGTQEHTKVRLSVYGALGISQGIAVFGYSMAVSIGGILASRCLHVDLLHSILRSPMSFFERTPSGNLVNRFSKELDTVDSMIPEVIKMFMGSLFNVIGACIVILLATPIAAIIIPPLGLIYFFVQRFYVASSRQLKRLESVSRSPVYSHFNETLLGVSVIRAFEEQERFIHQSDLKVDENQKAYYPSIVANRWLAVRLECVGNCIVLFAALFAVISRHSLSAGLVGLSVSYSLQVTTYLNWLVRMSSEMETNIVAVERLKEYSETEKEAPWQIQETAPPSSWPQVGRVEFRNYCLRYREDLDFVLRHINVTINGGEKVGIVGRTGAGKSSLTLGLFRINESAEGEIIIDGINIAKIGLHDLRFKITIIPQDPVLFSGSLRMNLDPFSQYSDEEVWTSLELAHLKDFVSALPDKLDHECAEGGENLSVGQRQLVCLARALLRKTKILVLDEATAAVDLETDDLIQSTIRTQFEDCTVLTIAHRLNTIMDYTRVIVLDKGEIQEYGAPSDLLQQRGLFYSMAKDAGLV

Row | melting point [°C] | inhibition at 30 min, 1 μM [2] [%] | inhibition at 30 min, 10 μM [2] [%] | inhibition at 30 min, 1 μM [3] [%] | inhibition at 30 min, 10 μM [3] [%] | Compound | inhibition at 30 min, 1 μM [1] [%] | inhibition at 30 min, 10 μM [1] [%] | IC50 [1] [nM] | inhibition at 30 min, 1 µM [1] [%] | IC50 ([1]; ABCG2 inhibition, Table 2) [nM] | rapidly metabolised, time [4] [min]
1 | 185.5 to 186.7 | – | – | – | – | O=C(N[C@H](Cc1c[nH]c2ccccc12)C(=O)O)c1cc(=O)c2c(OCc3ccc(Br)cc3)cccc2o1 [6e (series 1), (5-((4-bromobenzyl)oxy)-4-oxo-4H-chromene-2-carbonylamino)-D-tryptophan] | 6.1 ± 0.6 | 11.2 ± 2 | – | – | – | –
2 | – | 11.5 ± 0.4 | 15.3 ± 1.5 | 2.4 ± 2.1 | 10.6 ± 0.3 | CC[C@@H](C)[C@H](NC(=O)c1cc(=O)c2c(OCc3ccc(Br)cc3)cccc2o1)C(=O)N[C@H](C(=O)OC)C(C)C [7c (series 2)] | – | – | 250 ± 100 | 72.4 ± 7.1 | – | –
3 | – | – | – | – | – | COc1ccc2[nH]cc(CCNC(=O)c3cc(=O)c4c(OCc5cc(Br)cc(Br)c5)cccc4o3)c2c1 [7b (series 3), ((3,5-dibromobenzyl)oxy)-N-(2-(5-methoxy-1H-indol-3-yl)ethyl)-4-oxo-4H-chromene-2-carboxamide] | – | – | – | – | 100 ± 10 | –
4 | 235.3 to 236.2 | 10.3 | 17.4 | 7.4 ± 2.5 | 6.6 ± 1.4 | COC(=O)[C@H](Cc1c[nH]c2ccccc12)NC(=O)c1cc(=O)c2c(OCc3ccc(Br)cc3)cccc2o1 [5h (series 1), methyl (5-((4-bromobenzyl)oxy)-4-oxo-4H-chromene-2-carbonylamino)-L-tryptophanate] | 92 ± 15 | 87.7 ± 12 | 480 ± 70 | 96.4 | – | –
5 | 236.2 to 237.9 | 11.9 | 12.6 | 7.2 ± 1.3 | 6.1 ± 1.1 | COC(=O)[C@@H](Cc1c[nH]c2ccccc12)NC(=O)c1cc(=O)c2c(OCc3ccc(Br)cc3)cccc2o1 [5i (series 1), methyl (5-((4-bromobenzyl)oxy)-4-oxo-4H-chromene-2-carbonylamino)-D-tryptophanate] | 85 ± 12 | 96.3 ± 19 | 290 ± 50 | 84.8 | – | –
6 | 60.3 to 60.4 | 20.2 ± 2.7 | 19.2 ± 2.2 | 7 ± 1.1 | 4.8 ± 0.7 | COC(=O)[C@H](CC(C)C)NC(=O)c1cc(=O)c2c(OCc3ccccc3Br)cccc2o1 [5c (series 1), methyl (5-((2-bromobenzyl)oxy)-4-oxo-4H-chromene-2-carbonylamino)-L-leucinate] | 115 ± 17 | 102 ± 21.7 | 140 ± 40 | 114 | – | –
7 | 242.8 to 243.7 | 17.1 | 13.1 ± 2.4 | 7.8 | 7.9 ± 2.3 | CCC(C)[C@H](NC(=O)c1cc(=O)c2c(OCc3ccccc3Br)cccc2o1)C(=O)O (stereo partly drawn) [6a (series 1), (5-((2-bromobenzyl)oxy)-4-oxo-4H-chromene-2-carbonylamino)-L-alloisoleucine] | 0 | 1.6 ± 3.1 | – | – | – | –
8 | – | 10.9 ± 1.4 | 14.7 ± 1 | 3.6 ± 0.2 | 5.9 ± 0.1 | CC[C@@H](C)[C@H](NC(=O)c1cc(=O)c2c(OCc3ccc(Br)cc3)cccc2o1)C(=O)N[C@@H](CC(C)C)C(=O)OC [7d (series 2), methyl (5-((4-bromobenzyl)oxy)-4-oxo-4H-chromene-2-carbonylamino)-L-alloisoleucyl-L-leucinate] | – | – | 110 ± 30 | 52.3 ± 5.1 | – | –
9 | 123.1 to 125.7 | – | – | – | – | CCC(C)[C@H](NC(=O)c1cc(=O)c2c(OCc3ccccc3Br)cccc2o1)C(=O)OC (stereo partly shown) [5a (series 1)] | 78 ± 9 | 143 ± 22 | 100 ± 10 | – | – | –
10 | – | 11.1 ± 0.8 | 10.8 ± 2.8 | 0.1 | 0.2 | CC[C@@H](C)[C@H](NC(=O)c1cc(=O)c2c(OCc3ccccc3Br)cccc2o1)C(=O)N[C@H](C(=O)OC)C(C)C [7a (series 2)] | – | – | 70 ± 10 | 84.8 ± 7.4 | – | –
11 | 250 to 252.8 | 23 ± 2.5 | 16 ± 2.5 | 7.4 ± 0.3 | 5.3 ± 0.5 | COC(=O)[C@H](Cc1c[nH]c2ccccc12)NC(=O)c1cc(=O)c2c(OCc3ccccc3Br)cccc2o1 [5g (series 1), methyl (5-((2-bromobenzyl)oxy)-4-oxo-4H-chromene-2-carbonylamino)-L-tryptophanate] | 93.7 ± 17 | 39.7 ± 3.7 | – | 93.7 | – | –
12 | – | – | – | – | – | COc1ccc2c3c([nH]c2c1)[C@H](CC(C)C)N1C(=O)[C@H](CCC(=O)OC(C)(C)C)NC(=O)[C@@H]1C3 [Ko143] | – | – | – | – | – | 60
13 | – | – | – | – | – | CCC(C)[C@H](NC(=O)c1cc(=O)c2c(OCc3ccc(Br)cc3)cccc2o1)C(=O)OC (stereo partly shown) [5b (series 1)] | – | 115 ± 14 | 590 ± 80 | – | – | –
14 | 127 to 128.2 | 12.6 ± 1.3 | 17.8 ± 0.9 | 7.9 ± 0.7 | 6.5 ± 1.9 | COC(=O)[C@@H](NC(=O)c1cc(=O)c2c(OCc3ccccc3Br)cccc2o1)C(C)C [5d (series 1), methyl (5-((2-bromobenzyl)oxy)-4-oxo-4H-chromene-2-carbonylamino)-L-valinate] | 87 ± 7 | 148 ± 6.7 | 50 ± 30 | 86.6 | – | –
15 | – | – | – | – | – | O=C(N[C@@H](Cc1ccccc1)C(=O)O)c1cc(=O)c2c(OCc3ccc(Br)cc3)cccc2o1 [6d (series 1), (5-((4-bromobenzyl)oxy)-4-oxo-4H-chromene-2-carbonylamino)-L-phenylalanine] | 4 ± 0.7 | 6.5 | – | – | – | –
16 | – | 23 | 19 | 6.4 ± 1.5 | 6.8 ± 1.4 | COC(=O)[C@H](Cc1ccccc1)NC(=O)c1cc(=O)c2c(OCc3ccc(Br)cc3)cccc2o1 [5f (series 1), methyl (5-((4-bromobenzyl)oxy)-4-oxo-4H-chromene-2-carbonylamino)-L-phenylalaninate] | – | – | – | – | – | –
17 | – | – | – | – | – | COc1ccc2[nH]cc(CCNC(=O)c3cc(=O)c4c(OCc5ccc(Br)cc5)cccc4o3)c2c1 [MBL-II-141, reference compound] | – | – | – | – | 130 ± 90 | –
18 | – | 21.9 ± 4.6 | 20.6 ± 1.2 | 7.7 ± 1.9 | 7.1 ± 0.6 | CC[C@@H](C)[C@H](NC(=O)c1cc(=O)c2c(OCc3ccc(Br)cc3)cccc2o1)C(=O)O [6b (series 1), (5-((4-bromobenzyl)oxy)-4-oxo-4H-chromene-2-carbonyl)-L-alloisoleucine] | – | – | – | – | – | –
19 | – | – | – | – | – | COc1ccc2[nH]cc(CCNC(=O)c3cc(=O)c4c(OCc5ccc(Br)cc5Br)cccc4o3)c2c1 [7a (series 3), 5-((2,4-dibromobenzyl)oxy)-N-(2-(5-methoxy-1H-indol-3-yl)ethyl)-4-oxo-4H-chromene-2-carboxamide] | – | – | 50 ± 10 | – | – | –
20 | – | 10.3 ± 0.7 | – | 1.7 ± 2.4 | 2.4 ± 0.5 | CC[C@@H](C)[C@H](NC(=O)c1cc(=O)c2c(OCc3ccccc3Br)cccc2o1)C(=O)N[C@@H](CC(C)C)C(=O)OC [7b (series 2)] | – | – | 70 ± 10 | 82.5 ± 9.7 | – | –
